This note sets out measurements from patent US10780074B2, “Compounds and uses thereof” (Sunovion Pharmaceuticals Inc., priority 2017, dated 2020).

For orientation: minimal effective dose means the smallest amount tested that counted as effective.

This assay concerns behaviors of compound-treated mice. The assay is described as follows: Neuropharmacological Assay (SmartCube). The conditions noted are these: for minimal effective dose: Mus musculus, ip, 0.25 h, dose having 50% or more total activity in SmartCube, i.p., read-out: MED (minimal effective dose); for AD: ADHD (probability that activity matches class) / AG: analgesic (probability that activity matches class) / AX: anxiolytic (probability that activity matches class) / CE: cognitive enhancer (probability that activity matches class) / DP: anti-depressant (probability that activity matches class) / MS: mood stabilizer (probability that activity matches class) / PS: anti-psychotic (probability that activity matches class) / SD: sedative hypnotic (probability that activity matches class) / UN: uncharacterized CNS activity (probability that activity matches class): i.p. 15 min before behavioral test, most efficacious dose(s) of 3 doses. The assay is classed as in vivo. In short, it runs like this: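 Mice dosed i.p. 15 min before testing, with compound in N-methyl-2-pyrrolidone/PEG/propylene glycol, were video-recorded and algorithmically compared with reference-drug behavioral signatures. This gave class-match probabilities (antidepressant, anxiolytic, etc.) at the most efficacious of 3 doses. MED was defined as the dose with ≥50% total activity, usually tested across 0.3–30 mpk.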

Structures can show the parent of a compound that is named as a salt. A value given as a limit tells only on which side of the number the result lay.

Take `CNC[C@@H]1OCCc2ccc(-c3cncnc3)cc21` (single isomer, unassigned) [Compound 26, hydrochloride]: the minimal effective dose was more than 30 mg/kg, the “AD: ADHD (probability that activity matches class)” value (shortened to “AD: ADHD”) is on record as “+ (LOQ ≤ + <5%)”, the “AG: analgesic (probability that activity matches class)” value (from here on “AG: analgesic”) was “+ (LOQ ≤ + <5%)” and the “AX: anxiolytic (probability that activity matches class)” value (from here on “AX: anxiolytic”) was “+ (LOQ ≤ + <5%)”. Also, the “CE: cognitive enhancer (probability that activity matches class)” value (shortened to “CE: cognitive enhancer”) is “+ (LOQ ≤ + <5%)”, the “DP: anti-depressant (probability that activity matches class)” value (“DP: anti-depressant” below) is reported as “+ (LOQ ≤ + <5%)”, the “MS: mood stabilizer (probability that activity matches class)” value (shortened to “MS: mood stabilizer”) is reported as “+ (LOQ ≤ + <5%)” and the “PS: anti-psychotic (probability that activity matches class)” value (“PS: anti-psychotic” for short) is on record as “+ (LOQ ≤ + <5%)”. The “SD: sedative hypnotic (probability that activity matches class)” value (shortened to “SD: sedative hypnotic”) was “+ (LOQ ≤ + <5%)” and the “UN: uncharacterized CNS activity (probability that activity matches class)” value (shortened to “UN: uncharacterized CNS activity”) was “+ (LOQ ≤ + <5%)”.

In the case of `NC[C@@H]1OCCc2c(-c3cnco3)cccc21` (single isomer, unassigned) [Compound 98, hydrochloride salt], the minimal effective dose was not above 3 mg/kg, the “AD: ADHD” value was “++ (5% ≤ ++ <25%)”, the “AG: analgesic” value is recorded as “+ (LOQ ≤ + <5%)” and the “AX: anxiolytic” value was “++ (5% ≤ ++ <25%)”. Moreover, the “CE: cognitive enhancer” value is given as “+ (LOQ ≤ + <5%)”, the “DP: anti-depressant” value is “++++ (50% ≤ ++++)”, the “MS: mood stabilizer” value is given as “+ (LOQ ≤ + <5%)” and the “PS: anti-psychotic” value is “+ (LOQ ≤ + <5%)”. Further, the “SD: sedative hypnotic” value is recorded as “+ (LOQ ≤ + <5%)” and the “UN: uncharacterized CNS activity” value is on record as “+ (LOQ ≤ + <5%)”.

For the compound `NC[C@H]1OCCc2c(-c3ccncn3)cccc21` (single isomer, unassigned) [Compound 75, hydrochloride salt], the minimal effective dose was 3 to 10 mg/kg, the “AD: ADHD” value is “+ (LOQ ≤ + <5%)”, the “AG: analgesic” value was “+ (LOQ ≤ + <5%)” and the “AX: anxiolytic” value is recorded as “++ (5% ≤ ++ <25%)”. Further, the “CE: cognitive enhancer” value is “+ (LOQ ≤ + <5%)”, the “DP: anti-depressant” value is recorded as “++++ (50% ≤ ++++)”, the “MS: mood stabilizer” value is given as “+ (LOQ ≤ + <5%)” and the “PS: anti-psychotic” value is on record as “+ (LOQ ≤ + <5%)”. Further, the “SD: sedative hypnotic” value is on record as “+ (LOQ ≤ + <5%)” and the “UN: uncharacterized CNS activity” value is listed as “++ (5% ≤ ++ <25%)”.

For `NC[C@H]1OCCc2c(-c3cnoc3)cccc21` (single isomer, unassigned) [Compound 87, hydrochloride salt], the minimal effective dose was not above 3 mg/kg, the “AD: ADHD” value is listed as “++ (5% ≤ ++ <25%)”, the “AG: analgesic” value is reported as “+ (LOQ ≤ + <5%)” and the “AX: anxiolytic” value is recorded as “++++ (50% ≤ ++++)”. Further, the “CE: cognitive enhancer” value was “+ (LOQ ≤ + <5%)”, the “DP: anti-depressant” value is “++++ (50% ≤ ++++)”, the “MS: mood stabilizer” value is given as “+ (LOQ ≤ + <5%)” and the “PS: anti-psychotic” value is on record as “+ (LOQ ≤ + <5%)”. Further, the “SD: sedative hypnotic” value is recorded as “+ (LOQ ≤ + <5%)” and the “UN: uncharacterized CNS activity” value was “+ (LOQ ≤ + <5%)”.

Turning to `CNC[C@H]1OCCc2c(-c3c[nH]cn3)cccc21` (single isomer, unassigned) [Compound 115, hydrochloride salt], the minimal effective dose was in the range of 10 to 30 mg/kg, the “AD: ADHD” value is “+ (LOQ ≤ + <5%)”, the “AG: analgesic” value is reported as “+ (LOQ ≤ + <5%)” and the “AX: anxiolytic” value was “++ (5% ≤ ++ <25%)”. The “CE: cognitive enhancer” value is given as “+ (LOQ ≤ + <5%)”, the “DP: anti-depressant” value was “+ (LOQ ≤ + <5%)”, the “MS: mood stabilizer” value is recorded as “+ (LOQ ≤ + <5%)” and the “PS: anti-psychotic” value was “+ (LOQ ≤ + <5%)”. The “SD: sedative hypnotic” value is “+ (LOQ ≤ + <5%)” and the “UN: uncharacterized CNS activity” value is recorded as “+ (LOQ ≤ + <5%)”.

As for `NC[C@@H]1OCCc2c(-c3c[nH]cn3)cccc21` (single isomer, unassigned) [Compound 112, hydrochloride salt], the minimal effective dose fell in the range of 10 to 30 mg/kg, the “AD: ADHD” value was “+ (LOQ ≤ + <5%)”, the “AG: analgesic” value is “+ (LOQ ≤ + <5%)” and the “AX: anxiolytic” value was “++ (5% ≤ ++ <25%)”. For the same compound, the “CE: cognitive enhancer” value is “+ (LOQ ≤ + <5%)”, the “DP: anti-depressant” value was “++ (5% ≤ ++ <25%)”, the “MS: mood stabilizer” value is reported as “+ (LOQ ≤ + <5%)” and the “PS: anti-psychotic” value is “+ (LOQ ≤ + <5%)”. For the same compound, the “SD: sedative hypnotic” value was “+ (LOQ ≤ + <5%)” and the “UN: uncharacterized CNS activity” value is reported as “+ (LOQ ≤ + <5%)”.

For the compound `NC[C@H]1OCCc2ccc(-c3cccnc3)cc21` (single isomer, unassigned) [Compound 12, hydrochloride], the minimal effective dose lay in the range of 10 to 30 mg/kg, the “AD: ADHD” value is on record as “+ (LOQ ≤ + <5%)”, the “AG: analgesic” value is “+ (LOQ ≤ + <5%)” and the “AX: anxiolytic” value is on record as “+ (LOQ ≤ + <5%)”. In addition, the “CE: cognitive enhancer” value was “+ (LOQ ≤ + <5%)”, the “DP: anti-depressant” value is reported as “++++ (50% ≤ ++++)”, the “MS: mood stabilizer” value is reported as “+ (LOQ ≤ + <5%)” and the “PS: anti-psychotic” value is “++ (5% ≤ ++ <25%)”. Moreover, the “SD: sedative hypnotic” value is “++ (5% ≤ ++ <25%)” and the “UN: uncharacterized CNS activity” value is reported as “+ (LOQ ≤ + <5%)”.

Turning to `CNC[C@H]1OCCc2c(-c3ccccn3)cccc21` (single isomer, unassigned) [Compound 44, hydrochloride salt], the minimal effective dose was not above 3 mg/kg, the “AD: ADHD” value is given as “+ (LOQ ≤ + <5%)”, the “AG: analgesic” value was “++ (5% ≤ ++ <25%)” and the “AX: anxiolytic” value is reported as “++ (5% ≤ ++ <25%)”. Moreover, the “CE: cognitive enhancer” value is on record as “+ (LOQ ≤ + <5%)”, the “DP: anti-depressant” value is given as “++++ (50% ≤ ++++)”, the “MS: mood stabilizer” value is “+ (LOQ ≤ + <5%)” and the “PS: anti-psychotic” value is recorded as “+ (LOQ ≤ + <5%)”. In addition, the “SD: sedative hypnotic” value is given as “+ (LOQ ≤ + <5%)” and the “UN: uncharacterized CNS activity” value is “+ (LOQ ≤ + <5%)”.

For the compound `CNCC1OCCc2c(-c3cnccn3)cccc21` (centres unmarked) [Compound 56, N-Methyl-1-(5-(pyrazin-2-yl)isochroman-1-yl)methanamine hydrochloride salt], the minimal effective dose lay in the range of 3 to 10 mg/kg, the “AD: ADHD” value is recorded as “++ (5% ≤ ++ <25%)”, the “AG: analgesic” value is “+ (LOQ ≤ + <5%)” and the “AX: anxiolytic” value is “++ (5% ≤ ++ <25%)”. In addition, the “CE: cognitive enhancer” value was “+ (LOQ ≤ + <5%)”, the “DP: anti-depressant” value was “++++ (50% ≤ ++++)”, the “MS: mood stabilizer” value was “+ (LOQ ≤ + <5%)” and the “PS: anti-psychotic” value is listed as “+ (LOQ ≤ + <5%)”. The “SD: sedative hypnotic” value is reported as “+ (LOQ ≤ + <5%)” and the “UN: uncharacterized CNS activity” value is “+ (LOQ ≤ + <5%)”.

For the compound `NC[C@@H]1OCCc2c(-c3cocn3)cccc21` [Compound 100, (R)-(5-(oxazol-4-yl)isochroman-1-yl)methanamine HCl salt], the minimal effective dose was in the range of 3 to 10 mg/kg, the “AD: ADHD” value is recorded as “+ (LOQ ≤ + <5%)”, the “AG: analgesic” value was “+ (LOQ ≤ + <5%)” and the “AX: anxiolytic” value is “++ (5% ≤ ++ <25%)”. Further, the “CE: cognitive enhancer” value is listed as “+ (LOQ ≤ + <5%)”, the “DP: anti-depressant” value is on record as “+ (LOQ ≤ + <5%)”, the “MS: mood stabilizer” value is “+ (LOQ ≤ + <5%)” and the “PS: anti-psychotic” value is recorded as “+ (LOQ ≤ + <5%)”. Besides, the “SD: sedative hypnotic” value was “+ (LOQ ≤ + <5%)” and the “UN: uncharacterized CNS activity” value is recorded as “++++ (50% ≤ ++++)”.

For the compound `CCNC[C@@H]1OCCc2c(-c3ccncc3)cccc21` (single isomer, unassigned) [Compound 66, hydrochloride salt], the minimal effective dose lay within 10 to 30 mg/kg, the “AD: ADHD” value is “+ (LOQ ≤ + <5%)”, the “AG: analgesic” value was “+ (LOQ ≤ + <5%)” and the “AX: anxiolytic” value is “++ (5% ≤ ++ <25%)”. Moreover, the “CE: cognitive enhancer” value is reported as “+ (LOQ ≤ + <5%)”, the “DP: anti-depressant” value is “++ (5% ≤ ++ <25%)”, the “MS: mood stabilizer” value is on record as “+ (LOQ ≤ + <5%)” and the “PS: anti-psychotic” value is listed as “+ (LOQ ≤ + <5%)”. Besides, the “SD: sedative hypnotic” value is reported as “+ (LOQ ≤ + <5%)” and the “UN: uncharacterized CNS activity” value was “+ (LOQ ≤ + <5%)”.
